Reference: patent US20260263617A1, “DARATUMUMAB DRUG CONJUGATES AND PREPARATION THEREOF” (ZYDUS LIFESCIENCES LIMITED, priority 2023, published 2026)
Where two headings read alike, the source gives them in different places.

Legend:
[1] = test system: Daudi (ATCC CCL-213, B Lymphoblast) cells; assay: In-vitro cytotoxicity assay using Daudi cells (alamar blue); type: cell-based
Procedure: Daudi (ATCC CCL-213, B Lymphoblast) cells were seeded on a 96 well black clear bottom plate (Costar 3603). The cell line was chosen as it is known to express the CD38 receptor. The cells were treated with different concentrations of daratumumab-MMAE conjugation and Darzalex, incubated in CO2 incubator for 2 hours. After incubation the excess or unbound Daratumumab-MMAE was removed, fresh media was added and incubated for 4 days in 5% CO2 at 37° C. At the end of incubation, alamar blue dye (invitrogen, DAL-1100) was added to the cells and incubated for 5 hours in CO2 incubator.

[2] = test system: Daudi Burkitt lymphoma xenograft; assay: Efficacy in Burkitt lymphoma xenograft disease model in SCID mice; type: in vivo; conditions: 5 mg/kg, I.V. route, single administration; dosed at mean tumor volume approximately 20-25 mm3; FIG. 4
Procedure: In present study, the therapeutic potential of novel Daratumumab-ADC has been evaluated in comparison to Daratumumab antibody only. Specifically to induce Burkitt lymphoma xenograft, Immunodeficient SCID mice were injected with Daudi cells (1 million cells/animal/200 μL volume, In 1:1 ratio of cell suspension & matrigel) in right flank region of animals. […] Here, in this study, Daratumumab-ADC & Daratumumab were compared head to head at a dose level of 5 mg/kg (I.V. route, Single administration).

Substance	in vitro activity (cytotoxicity, viable cells by alamar blue fluorescence) ([1]; Daudi cells expressing CD38, 2 hours treatment, unbound removed, 4 days incubation, no effector cells)	relative in vitro activity compared with Darzalex ([1]; Daudi cells, FIG. 3)	effect on tumor progression / tumor burden [2]	in vitro activity (cytotoxicity, viable cells by alamar blue fluorescence) [1]
daratumumab-MMAE conjugate: daratumumab as an antibody, mc-vc-PABC as a linker and MMAE as a toxin or drug or payload; average DAR about 4	shows good in vitro activity without the requirement of effector cell mediated killing	better than Darzalex	able to regress the tumor burden	–
Daratumumab: immunoglobulin G1 kappa (IgG1κ) human monoclonal antibody against CD38 antigen [reference compound]	–	–	able to delay the tumor progression in comparison to placebo control group but not able to regress the tumor burden	does not show activity without effector functions
